Test results as given in PMC12040169 (PLOS Biology, 2025).

Assay: in vitro
Settings: human, hela cells, % viability
For `O=C(O)C1CCC(CNc2ccc([N+](=O)[O-])cn2)CC1` (centres unmarked) [CBK286626], the viability at 28.5 h, 10 µM was 81.2%. Work on `COc1cccc(N(CC(=O)Nc2ccc(C)c(C)c2)S(=O)(=O)c2ccc(C)cc2)c1` [CBK263761] yielded a viability at 28.5 h, 10 µM of 103%. Work on `CC1(C)[C@H](Cc2cc(CO)on2)C[C@@H]1NS(=O)(=O)c1ccccc1` [CBK289234] yielded a viability at 28.5 h, 10 µM of 86%. With `CCOc1ccc(CN(C)C(=O)Nc2cc(C)on2)cc1` [CBK306216] the viability at 28.5 h, 10 µM was 101%. For `COc1ccc(-n2ncc(-c3ccc(C(F)(F)F)cc3)n2)cc1` [CBK112688], the viability at 28.5 h, 10 µM was 92.4%. With `N#Cc1cccc(Cn2cc(NC(=O)NCCc3cccs3)cn2)c1` [CBK043824] the viability at 28.5 h, 10 µM was 94.9%. With `CN1C(=O)CC2(C1=O)C(=O)N(CCN1CCCC1=O)c1ccc(F)cc12` (centres unmarked) [CBK075463] the viability at 28.5 h, 10 µM was 90.4%. In the case of `Cc1cnn(CCCNC(=S)Nc2ccc(S(N)(=O)=O)cc2)c1` [CBK266957], the viability at 28.5 h, 10 µM is reported as 90.7%. `O=C(CCSc1nnnn1-c1ccc(C(=O)O)cc1)Nc1ccc(F)cc1` [CBK300497] showed a viability at 28.5 h, 10 µM of 88.4%. With `NCCn1cc(C(=O)N2Cc3cnn(Cc4ccc(F)cc4)c3C2)nn1` [CBK307461] the viability at 28.5 h, 10 µM was 107%. With `CCC(CC)C(=O)N1CCC(c2nnc3n2CCCCC3)CC1` [CBK284614] the viability at 28.5 h, 10 µM was 86.6%. Compound `COc1ccc(-c2cccc(Nc3cc(OC)c(OC)c(OC)c3)n2)cc1OC` [CBK037634] has a viability at 28.5 h, 10 µM of 55.7%. Compound `N=c1c2c3c(sc2ncn1CCCn1ccnc1)CCCC3` [CBK264211] has a viability at 28.5 h, 10 µM of 95.5%. Work on `Cn1cc(-c2ncc(OCCc3c[nH]c4ccccc34)nc2N)cn1` [CBK145166] yielded a viability at 28.5 h, 10 µM of 88.3%. Work on `CO[C@@]12CC[C@@H](OCC3CC3)C[C@@H]1N(Cc1c(C)cnn1C)CC2` [CBK307072] yielded a viability at 28.5 h, 10 µM of 97%. In the case of `CCc1nccn1CC(=O)N(C)C1CCCN(Cc2ccccc2F)C1` (centres unmarked) [CBK306928], the viability at 28.5 h, 10 µM is reported as 102%. `O=C1CCCN1CCCNC(=O)C1(c2ccccc2)COc2ccccc21` (centres unmarked) [CBK017653] gave a viability at 28.5 h, 10 µM of 92.3%. Work on `COc1cccc(CNc2nccnc2-c2cccs2)c1OC` [CBK036784] yielded a viability at 28.5 h, 10 µM of 95.7%. For `FC(F)Oc1ccc(-c2ccnc(S)n2)cc1` [CBK288385], the viability at 28.5 h, 10 µM was 91.9%. For `c1cnc(NCc2cc3n(n2)CCN(CC2CCCCC2)C3)cn1` [CBK307592], the viability at 28.5 h, 10 µM was 80%. `Cc1ccc(C(C)(C)CC(C)NCc2cccc(C(F)(F)F)c2)o1` (centres unmarked) [CBK262872] showed a viability at 28.5 h, 10 µM of 95%. In the case of `Cn1c(/C=C/C=C/CN2CCN(Cc3ccccc3)CC2)nc2ccc([N+](=O)[O-])cc21` [CBK268281], the viability at 28.5 h, 10 µM is reported as 91.2%. Work on `Fc1ccccc1CN(CCCn1ccnc1)Cc1ccoc1` [CBK283024] yielded a viability at 28.5 h, 10 µM of 89.9%. In the case of `c1ccc(Nc2nc(-c3ccc4c(c3)OCO4)cn3ccnc23)cc1` [CBK037494], the viability at 28.5 h, 10 µM is reported as 92.2%. `CCn1ncc(CN(C)C(=O)CCN2CCCCCC2=O)c1C` [CBK306718] gave a viability at 28.5 h, 10 µM of 97.2%. For `O=C(/C=C/c1ccc2c(c1)OCO2)NCCSc1ccccn1` [CBK264012], the viability at 28.5 h, 10 µM was 97.7%. In the case of `COCC(=O)N1CCN(C(=O)c2cccc(F)c2)C[C@H]1C(=O)OC` [CBK289608], the viability at 28.5 h, 10 µM is reported as 89.4%. Compound `Cc1cc(NC(=O)CNC(=O)c2ccccc2)no1` [CBK073427] has a viability at 28.5 h, 10 µM of 99.7%. In the case of `O=[N+]([O-])c1ccc(Cc2cc[n+](-c3nc4ccccc4nc3[N-]S(=O)(=O)c3ccc([N+](=O)[O-])cc3)cc2)cc1` [CBK301201], the viability at 28.5 h, 10 µM is reported as 84.3%. `O=C(CSCc1ccc(Cl)c(Cl)c1)Nc1cccnc1` [CBK268542] showed a viability at 28.5 h, 10 µM of 112%. Compound `C#CCn1cc(CN2CCc3c(nc(C)[nH]c3=O)C2)c2ccccc21` [CBK282382] has a viability at 28.5 h, 10 µM of 102%. Compound `O=C(CCN1CCOCC1)N/N=C\c1cccs1` [CBK005035] has a viability at 28.5 h, 10 µM of 90.6%. In the case of `O=C(Nc1cccnc1)N1CCN(c2ccc(F)cc2)CC1` [CBK156427], the viability at 28.5 h, 10 µM is reported as 92.7%. With `COc1ccc(-c2nc(NC(=O)C3CCC(OC)CC3)cnc2-c2cccc(C)c2)cn1` (centres unmarked) [CBK036813] the viability at 28.5 h, 10 µM was 109%. With `Cc1nc2c3ccccc3nc(SCC(=O)Nc3ccccc3)n2n1` [CBK295205] the viability at 28.5 h, 10 µM was 78.5%.
